Experimental data reported in PMC11395096, “Study of Pentacyclic Triterpenes from Lyophilised Aguaje: Anti-Inflammatory and Antioxidant Properties” (International Journal of Molecular Sciences, 2024).
Structures can show the parent of a compound that is named as a salt.

Assays:
NF-κB [1] = test system: NF-κB; set-up: method as in PMID 24853120, PMID 15668926; conditions: cited from earlier work
NO production [2] = test: NO inhibition assay, LPS-stimulated RAW 264.7 cells; type: cell-based, Mus musculus; conditions: RAW 264.7, + LPS 100 μg mL^−1, 72 h
Source text: (§1) The IC-21 (Mus musculus macrophage cells, TIB-186) and RAW 264.7 (Mus musculus macrophage cells, TIB-71) cell lines used in this study were obtained from the American Type Culture Collection (ATCC, Manassas, VA, USA). The selection of IC-21 and RAW 264.7 cell lines for studies on inflammation and antioxidant activity is based on two main reasons: the cell type and their origin. Firstly, both IC-21 and RAW 264.7 cell lines are macrophages, which play a crucial role in the immune system, being essential for the inflammatory response and regulation of oxidative stress. These cells have the capacity to produce pro-inflammatory cytokines, express transcription factors such as NF-κB, and generate NO, making them ideal models to understand inflammatory mechanisms. Moreover, macrophages are involved in the activation of Nrf2, a transcription factor critical for the antioxidant response, allowing these cell lines to enable a comprehensive assessment of antioxidant activity within an inflammatory context.
(§2) Stock solutions of the samples (extracts and compounds) were prepared at a concentration of 1 mM using dimethyl sulfoxide (DMSO ≥ 99.9% Sigma-Aldrich, CAS No. 67-68-5, St. Louis, MO, USA) as the solvent. Dilutions from these stock solutions were then made to achieve concentrations between 100 and 0.20 μg mL^−1 or μM in the culture medium, which contained 0.5% DMSO. A control group consisting only of the culture medium with 0.5% DMSO was also included to determine its potential cytotoxicity.
(§3) The 50% cytotoxic concentration (CC50), 50% inhibitory concentration (IC50), and half-maximal effective concentration (EC50) values were calculated using the sigmoidal dose–response function. All experiments were conducted in triplicate, and the data obtained were expressed as the mean and standard deviation. A two-way analysis of variance (ANOVA) combined with Dunnett’s multiple comparisons test (p < 0.001) was performed for the cytotoxicity, NF-κB inhibition, NO inhibition and Nrf2 activation assays, while a one-way ordinary ANOVA combined with Dunnett’s multiple comparisons test (p < 0.001) was conducted for the SOD assay. All statistical analyses were performed using GraphPad Prism version 10.0.0 (La Jolla, CA, USA, www.graphpad.com, accessed on 28 August 2024).
(§4) To determine the anti-inflammatory activity of the samples (at the same concentration as in the viability assay), the […] was used, implementing the protocol adapted from Guo et al.. Cells were cultured in 96-well plates (1 × 10^4 cells per well). […] Absorbance was measured at 540 nm using a microplate reader.

NF-κB [3] = test: NF-κB inhibition assay, LPS-stimulated IC-21 cells; type: cell-based, Mus musculus; conditions: IC-21, + LPS 100 μg mL^−1, 72 h; for IC50: compounds series, read-out: Inhibition of NF-κB production IC50
Source text: as §1, §2, §3
(§5) To assess the anti-inflammatory potential of the samples at the same concentrations used in the cell viability assay, an NF-κB inhibition assay was used following the approach established by Apaza Ticona et al.. Cells were seeded in 96-well plates at a density of 3 × 10^3 cells per well. […] Absorbance was quantified at 450 nm using a microplate reader.

NO production [4] = test: NO inhibition assay, LPS-stimulated IC-21 cells; type: cell-based, Mus musculus; conditions: IC-21, + LPS 100 μg mL^−1, 72 h
Source text: as §1, §2, §3, §4

NF-κB [5] = test: NF-κB inhibition assay, LPS-stimulated RAW 264.7 cells; type: cell-based, Mus musculus; conditions: RAW 264.7, + LPS 100 μg mL^−1, 72 h; for IC50: compounds series, read-out: Inhibition of NF-κB production IC50
Source text: as §1, §2, §3, §5

NF-κB [6] = test: NF-κB inhibition assay, value not assigned to one cell line; type: cell-based; conditions: Mus musculus
Procedure: as §5

[7] = biological target: Superoxide Dismutase (SOD); test: SOD activation assay (kit); type: biochemical; conditions: 72 h; for EC50: compounds series
Procedure: as §3
To determine the antioxidant response of the samples (at the same concentration as in the viability assay), the SOD activation assay kit (Sigma-Aldrich, CAS No. MAK528, St. Louis, MO, USA) was used, implementing the protocol adapted from Vincent et al.. […] Absorbance was measured at 450 nm using a microplate reader.

[8] = NR (neutral red) viability assay, RAW 264.7 cells; type: cell-based, Mus musculus; conditions: mouse, RAW 264.7 macrophage cells, RAW 264.7, 72 h, compounds series
Source text: as §1
(§6) Cultivated in a Roswell Park Memorial Institute (RPMI) 1640 medium (RPMI 1640 Sigma-Aldrich, CAS No. R7755, St. Louis, MO, USA) supplemented with 2 mM L-glutamine (≥99% Sigma-Aldrich, CAS No. 56-85-9, St. Louis, MO, USA), 10% foetal bovine serum (FBS Sigma-Aldrich, CAS No. TMS-016, St. Louis, MO, USA), and 10,000 units of penicillin and 10 mg streptomycin mL^−1 (Sigma-Aldrich, CAS No. P4333, St. Louis, MO, USA) in culture flasks, the cells were maintained in an incubator under normoxic conditions (20–21% O2) and a humidified atmosphere (5% CO2, at 37 °C).
as §2, §3
(§7) Cell viability was evaluated using a colorimetric assay in 96-well plates, employing 3-amino-7-dimethylamino-2-methylphenazine hydrochloride salt reagent (NR, Sigma-Aldrich, CAS No. 553-24-2, St. Louis, MO, USA). ACTD (≥95% Sigma-Aldrich, CAS No. 50-76-0, St. Louis, MO, USA) was used as a positive control, with a CC50 value of 0.01 μg mL^−1 for the extracts, or 0.008 μM for the compounds. The IC-21 and RAW 264.7 cell lines were cultured in 96-well plates at 37 °C with 5% CO2 until >90% confluency was achieved (1 × 10^4 cells per well). Subsequently, the cultures were treated with sample dilutions (100–0.20 μg mL^−1 or μM) for 72 h at 37 °C with 5% CO2 in phenol red-free RPMI. The supernatant was then discarded, and the cells were washed with phosphate-buffered saline (PBS) before being incubated with […] NR (50 μg mL^−1; 173 μM) for 3 h at 37 °C with 5% CO2. NR labelling was performed after DMSO treatment. […]

RAW 264.7 cell line = test: NR (neutral red) viability assay, RAW 264.7 cells; type: cell-based, Mus musculus; conditions: RAW 264.7, 72 h, compounds series
Source text: as §1, §6, §2, §3, §7

Nrf2 [9] = test: Nrf2 activation assay, RAW 264.7 cells; type: cell-based, Mus musculus; conditions: RAW 264.7, 72 h, read-out: Activation of Nrf2 production EC50
Source text: as §1, §2, §3
(§8) To determine the antioxidant response of the samples (at the same concentration as in the viability assay), the Nrf2 activation assay was used following the protocol carried out by Apaza Ticona et al.. Cells were cultured in 96-well plates (1 × 10^4 cells per well). […] Absorbance was measured at 540 nm using a microplate reader.

Nrf2 [10] = test: Nrf2 activation assay, IC-21 cells; type: cell-based; conditions: Mus musculus, 72 h, IC-21, 72 h, read-out: Activation of Nrf2 production EC50
Source text: as §1, §2, §3, §8

IC-21 cell line = test: NR (neutral red) viability assay, IC-21 cells; type: cell-based, Mus musculus; conditions: IC-21, 72 h, compounds series
Source text: as §1, §6, §2, §3, §7

[11] = NR (neutral red) viability assay, IC-21 cells; type: cell-based, Mus musculus; conditions: mouse, IC-21 macrophage cells, IC-21, 72 h, compounds series
Source text: as §1, §6, §2, §3, §7

Nrf2 [12] = test: Nrf2 activation assay, value not assigned to one cell line; type: cell-based, Mus musculus
Procedure: as §8

NO production [13] = test: NO inhibition assay, value not assigned to one cell line; type: cell-based; conditions: Mus musculus
Procedure: as §4

[14] = Mus musculus, RAW264.7, 72 h, compounds series
[15] = Mus musculus, 72 h, compounds series
[16] = Mus musculus, RAW264.7, across IC-21 and RAW 264.7 / cell line not stated, compounds series
[17] = Mus musculus, RAW264.7, 72 h, extracts series
[18] = RAW264.7, across IC-21 and RAW 264.7 / cell line not given, compounds series

Compound	EC50 [7] [µM]	IC50 (NO production [2]; [14]) [µM]	CC50 at 72 h [8] [µM]	CC50 (RAW 264.7 cell line) [µM]	EC50 (Nrf2 [9]; [14]) [µM]	IC50 (NF-κB [3]; Mus musculus, 72 h) [µM]	IC50 (NO production [4]; [15]) [µM]	IC50 (NF-κB [5]; Mus musculus, RAW264.7, 72 h) [µM]	EC50 (Nrf2 [10]; compounds series) [nM]	CC50 at 72 h [11] [µM]	also measured
O=c1c(O)c(-c2ccc(O)c(O)c2)oc2cc(O)cc(O)c12 [quercetin]	–	–	–	–	–	–	–	–	–	–	concentration capable of inhibiting NF-κB activation (NF-κB [1]): 25 to 100 µM
lipopolysaccharide [LPS, reference compound]	–	–	–	–	–	–	–	–	–	–	IC50 (NO production [2]; compounds series): 98.3 µM; Inhibition of NO production IC50 (NO production [2]; extracts series): 97.2 µg/mL; IC50 (NF-κB [3]): 95.8 µM; Inhibition of NF-κB production IC50 (NF-κB [3]; extracts series): 97.5 µg/mL; IC50 (NO production [4]; compounds series): 97 µM; Inhibition of NO production IC50 (NO production [4]; extracts series): 95.2 µg/mL; IC50 (NF-κB [5]): 99.2 µM; Inhibition of NF-κB production IC50 (NF-κB [5]; extracts series): 98.7 µg/mL
CC1=C(O)C(=O)C=C2C1=CC=C1[C@@]2(C)CC[C@@]2(C)[C@@H]3C[C@](C)(C(=O)O)CC[C@]3(C)CC[C@]12C [CEL, celastrol]	–	–	–	–	–	–	–	–	–	–	IC50 (NF-κB [6]; RAW264.7, read-out: NF-κB inhibition IC50): 7.41 µM; IC50 (NF-κB [6]; read-out: NF-κB inhibition IC50): 3.34 µg/mL
COc1cc(/C=C/C(=O)CC(=O)/C=C/c2ccc(O)c(OC)c2)ccc1O [curcumin]	–	–	–	–	–	–	–	–	–	–	concentration capable of inhibiting NF-κB activation (NF-κB [1]): 10 to 50 µM
C[C@H]1[C@H](C)CC[C@]2(C(=O)O)CC[C@]3(C)C(=CC(=O)[C@@H]4[C@@]5(C)CC[C@H](O)C(C)(C)[C@@H]5CC[C@]43C)[C@H]12 [compound 3, (3β)-3-hydroxy-11-oxours-12-en-28-oic acid]	13.2	24.8	92.4	92.4	1.14	21	16.6	27.1	1030	88.5	CC50 (IC-21 cell line): 88.5 µM
CC(=O)O[C@H]1CC[C@]2(C)[C@H]3C(=O)C=C4[C@@H]5[C@@H](C)[C@H](C)CC[C@]5(C(=O)O)CC[C@@]4(C)[C@]3(C)CC[C@H]2C1(C)C [compound 2, (3β)-3-acetyloxy-11-oxours-12-en-28-oic acid]	7.43	15.5	84.9	84.9	0.772	13.4	11.3	20	524	78.5	–
COC(=O)[C@]12CCC(C)(C)C[C@H]1[C@H]1C(=O)C=C3[C@@]4(C)C=C(C#N)C(=O)C(C)(C)[C@@H]4CC[C@@]3(C)[C@]1(C)CC2 [CDDO-Me, bardoxolone methyl, reference compound]	–	–	–	–	0.00013	–	–	–	0.09	–	EC50 (Nrf2 [12]; [16]): 90 to 130 pM; EC50 (Nrf2 [12]; Mus musculus, cell line not stated, extracts series): 0.07 ng/mL; EC50 (Nrf2 [12]; across IC-21 and RAW 264.7 / cell line not given, compounds series): 110 pM; EC50 (Nrf2 [9]; [17]): 0.08 ng/mL; EC50 (Nrf2 [10]; extracts series): 0.05 ng/mL
C[C@H]1[C@H](C)CC[C@]2(C(=O)O)CC[C@]3(C)C(=CC(=O)[C@@H]4[C@@]5(C)CCC(=O)C(C)(C)[C@@H]5CC[C@]43C)[C@H]12 [compound 1, 3,11-dioxours-12-en-28-oic acid]	1.87	6.59	75.4	75.4	0.548	7.39	4.75	8.11	243	67.6	EC50 (Nrf2 [12]; [16]): 243000 to 548000 pM; EC50 (Nrf2 [9]; compounds series): 0.548 µM; IC50 (NF-κB [6]; RAW264.7, across IC-21 and RAW 264.7 / cell line not given, compounds series, read-out: NF-κB inhibition IC50): 7.39 to 8.11 µM; IC50 (NO production [13]; [18]): 4.75 to 6.59 µM; CC50 (IC-21 cell line): 67.6 µM
O=C(O)c1cc(O)c(O)c(O)c1 [GA, gallic acid, reference compound]	12.1	–	–	–	–	–	–	–	–	–	SOD activation EC50 ([7]; extracts series): 2.06 µg/mL
[H]/N=C(/NC)NCCC[C@H](N)C(=O)O [LNMMA, N^G-methyl-L-arginine acetate salt]	–	6.83	–	–	–	–	6.43	–	–	–	IC50 (NO production [2]; [17]): 1.64 µg/mL; IC50 (NO production [4]; Mus musculus, 72 h, extracts series): 1.57 µg/mL; IC50 (NO production [13]; [18]): 6.63 µM; IC50 (NO production [13]; cell line not stated, extracts series): 1.61 µg/mL
